Assay [1] deals with G0790-resistant CFT073 Δlpp. Put plainly: MIC against G0790-resistant CFT073 Δlpp strains. The class given is cell-based, E. coli. Particulars: non-lspA_GA. As to the method:
MICs of compounds in each strain were determined in cation-adjusted Mueller-Hinton II (MHII) broth or MHII agar according to the Clinical and Laboratory Standards Institute protocol (CLSI 2006). To measure the effect of protein binding on activity, MIC assays were performed in the presence of 50% heat-inactivated human serum. The serum killing assay was performed as described previously ([43]). FOR assays and growth on plates containing G0790 were always performed on MHII agarose plates.
Frequencies of resistance (FORs) of G0790 were determined for E. coli CFT073, E. cloacae (ATCC 13047), and K. pneumoniae (ATCC 700603) as previously published ([70]). To determine the FOR, 3 to 4 colonies of the strain to be tested were picked from a fresh plate and diluted to an optical density at 600 nm (OD600) of 0.00001 in 1 ml of cation-adjusted MHBII. Ten independent 5-ml cultures in MHBII were prepared by inoculating 5 μl (approximately 1 × 10^3 CFU) and incubated at 37°C for 18 h. […] In parallel, CFU from each independent culture was measured by spotting 10-fold serial dilutions on MHII agar plates and incubated at 37°C for 18 h. Colonies were counted at days 1, 2, and 3 postinoculation. FOR was calculated as the ratio of the total number of resistant colonies relative to the total CFU plated. […]

Another assay deals with E. cloacae 13047. Put plainly: Frequency of resistance (FOR). The class given is cell-based. Particulars: 4× MIC, MHII agarose. As to the method: (§1) Frequencies of resistance (FORs) of G0790 were determined for E. coli CFT073, E. cloacae (ATCC 13047), and K. pneumoniae (ATCC 700603) as previously published ([70]). To determine the FOR, 3 to 4 colonies of the strain to be tested were picked from a fresh plate and diluted to an optical density at 600 nm (OD600) of 0.00001 in 1 ml of cation-adjusted MHBII. Ten independent 5-ml cultures in MHBII were prepared by inoculating 5 μl (approximately 1 × 10^3 CFU) and incubated at 37°C for 18 h. The bacteria were pelleted by centrifugation at 4000 × g at 4°C for 15 min and resuspended in 0.5 ml fresh MHBII. Two hundred fifty microliters of the bacterial suspension was plated evenly on MHII agarose plates containing globomycin or G0790 at a final concentration of 4× and 8× MIC. In parallel, CFU from each independent culture was measured by spotting 10-fold serial dilutions on MHII agar plates and incubated at 37°C for 18 h. Colonies were counted at days 1, 2, and 3 postinoculation. FOR was calculated as the ratio of the total number of resistant colonies relative to the total CFU plated. For strains that had no resistant colonies growing on plates, the p0 method was used to calculate the FOR (FOR = m/total CFU plated, where m = −ln p0 and p0 is the proportion of cultures with no mutants; 0.7 ≥ p0 ≥ 0.1), as described previously ([71]). Colonies were picked and resuspended in 30 μl MHBII broth medium, and 10 μl was plated on an MHII agar plate containing G0790 to be used to determine the MIC. Of the remaining 20 μl, half was used to inoculate 1.5 ml MHBII broth medium containing G0790 and grown at 37°C for 18 h to generate cell lysates for Western blot analysis, isolate genomic DNA (gDNA) for whole-genome sequencing, and for frozen glycerol stocks.

The next assay has as its system E. coli CFT073 Δlpp. Put plainly: Frequency of resistance (FOR). The class given is cell-based. Particulars: for FOR (frequency of resistance): MHII agarose. As to the method:
as §1

For assay [2], the system named is E. coli CFT073. Briefly: Frequency of resistance (FOR). The class given is cell-based. Particulars: 4× MIC, MHII agarose. As to the method: as §1
The next assay deals with K. pneumoniae 700603. Briefly: Frequency of resistance (FOR). The class given is cell-based. Particulars: 4× MIC. As to the method: as §1
For assay [3], the system named is G0790-resistant E. coli CFT073. Put plainly: Population analysis profile (heteroresistance). Particulars: MHII agarose, 18 h, 37°C. The class given is cell-based. As to the method: The population analysis profiles of G0790 heteroresistant subpopulations were determined according to a method described previously ([79]). Briefly, three independent cultures for each G0790-resistant mutant strain were grown overnight at 37°C in MHBII containing G0790 at sub-MICs to maintain selective pressure. Five microliters or 10-fold serial dilution (10^−1 to 10^−7) in duplicates for each culture were transferred to MHII agarose plates or MHII agarose plates containing a range of G0790 concentrations (100, 75, 50, 37.5, 25, 12.5, 6.25, 3.125, 1.56, 0.8, and 0.4 μM). CFU were enumerated after incubation at 37°C for 18 h. Heteroresistance was defined using the criteria published by El-Halfawy and colleagues, which states there should be a >8-fold difference between the highest noninhibitory concentration and the highest inhibitory concentration ([2], [80]).

The test system of assay [4] is E. coli CFT073. Put plainly: Bactericidal activity, CFU over time. The format is cell-based. Particulars: G0790 at 2× MIC, two independent experiments in duplicates.
Assay [5] concerns E. coli CFT073. Briefly: Electron microscopy / live-cell imaging of morphology. The class given is cell-based. Particulars: CFT073, 2× MIC, 1 h (EM). As to the method:
Electron microscopy was performed as previously described ([61]). […] Cells were immediately placed between a coverslip and a 1% MHII agarose pad containing 12.4 μM G0790 and 10 μg/ml gentamicin for imaging. Cells were maintained at 37°C during imaging with a stage-top chamber (Okolab Inc.). Cells were imaged on a Nikon Eclipse Ti inverted confocal microscope (Nikon Instruments Inc.) coupled with an UltraVIEW VoX (PerkinElmer Inc.) and a 100× (numerical aperture [NA] 1.40) oil-immersion lens objective. Images were captured at various times using an ORCA-Flash 4.0 CMOS camera (Hamamatsu Photonics), collected using Volocity software (Quorum Technologies), and processed using Fiji ([66]).

Another assay concerns G0790-resistant CFT073. Put plainly: MIC after in vitro passaging of G0790-resistant strains. The format is cell-based, E. coli. Particulars: in words. As to the method: This bacterial culture is referred to as passage 1 (P1). […] For each passage, MICs were measured and cell lysates and genomic DNA were prepared for Western blot and whole-genome sequencing analyses, respectively.

Data on 1 compound can be found in paper PMC7482066, “Unstable Mechanisms of Resistance to Inhibitors of Escherichia coli Lipoprotein Signal Peptidase” (mBio, 2020).

Structures are written as SMILES. Converted amounts (≈) assume the structure as drawn. “Also recorded” adds a separate entry of the source.

As usually defined, the MIC is the least concentration at which growth counts as inhibited.

As to `CCCCCC[C@H]1OC(=O)CNC(=O)[C@H]([C@H](C)O)NC(=O)[C@H](CN)NC(=O)[C@H](C2CCCCC2)NC(=O)[C@H](CCC)N(C)C(=O)[C@@H]1C` [G0790], the MIC in assay [1] (CFT073 Δlpp 4×-R1, lspA_GA) stood at 78 µg/mL (≈ 117 µM); in [1] (CFT073 Δlpp 4×-R2, lspA_GA), 78 µg/mL (≈ 117 µM). Moreover, the “FOR (frequency of resistance)” value is listed as 2.7 × 10^−9 in the assay with E. cloacae 13047; 3.4 × 10^−11 with E. coli CFT073 Δlpp (4× MIC); <1.7 × 10^−11 with E. coli CFT073 Δlpp (8× MIC, no colonies, p0 method); 2.9 × 10^−9 in the assay with E. coli CFT073 [2]; 4.8 × 10^−8 in the assay on K. pneumoniae 700603 (MHII agarose). The “Decrease in FOR in CFT073 Δlpp compared to WT CFT073” value in the assay with E. coli CFT073 Δlpp (4× MIC) is ~85 fold. Moreover, the “FOR increase in K. pneumoniae 700603 relative to E. coli” value with K. pneumoniae 700603 is ~17 fold. For the same compound, the “Fold difference between highest inhibitory and highest noninhibitory concentration” value in assay [3] (CFT073 4×-R3) came out at 128 fold; in [3] (CFT073 4×-R10), 96 fold; in assay [3] (CFT073 8×-R5) it was 12 fold. Moreover, the Bactericidal activity entry with E. coli CFT073 [4] is listed as “bactericidal”. Moreover, the “Cell morphology / membrane accumulation” value in the assay with E. coli CFT073 [5] was “globular cell morphology and accumulation of bacterial membranes; also recorded: changes in cellular morphology and membrane accumulation”. The “MIC after passaging in the absence of G0790, lspA_GA mutants” value against G0790-resistant CFT073 (4×-R3, 4×-R10, 8×-R1, 8×-R5, 3 days) is “comparable to the MIC of the parental WT strain”. In addition, the “Phenotype after passaging in the absence of G0790, 8×-R5” value in the assay on G0790-resistant CFT073 (8×-R5 (GA and ISEc10-istB insertion upstream of lpp)) is listed as “reverted to the WT phenotype”. Also, the “Resistance after passaging in the absence of G0790, lpp insertion (downstream) or lpp deletion strains” value in the assay with G0790-resistant CFT073 (3 days) is given as “maintained resistance to G0790”.
